Reference: patent publication US7879795B2, “Enhancement of tigecycline potency using efflux pump inhibitors” (Mpex Pharmaceuticals, Inc., priority 2004, dated 2011)

Assays:
Stability in human serum = format: in vitro ADME; conditions: in words
Procedure: FIG. 9 compares the stability of compounds 1 and 3 in human serum as a function of time. Both compound 1 and compound 3 were stable after 18 hours of incubation with human serum.

[1] = test system: P. aeruginosa strain PAM1032 overexpressing MexAB-OprM efflux pump; assay: Mouse sepsis model of PA infection (ED50 of levofloxacin); format: in vivo
Procedure: P. aeruginosa strain PAM1032 overexpressing MexAB-OprM efflux pump was grown overnight in Mueller-Hinton Broth (MHB). The next day, the overnight culture was diluted in fresh MHB and was allowed to re-grow to ˜10^8 CFU/mL (OD600˜0.3). The culture was spun down, washed twice with phosphate buffered saline (PBS) and re-suspend in PBS to ˜1.2×10^7 CFU/mL (OD=0.12). Next this culture was mixed 1:1 with 14% hog-gastric mucin in PBS to give a final inoculum of […].
The effect of the EPI at 50 mg/kg was determined according to the following experimental design: […]

[2] = In vitro stability in rat serum and tissue homogenates (LC/MS/MS); format: in vitro ADME; conditions: for stability in tissue homogenates at pH lowered to about 6 versus no pH change: rat kidney, liver, lung homogenates, acetic acid
[3] = test system: P. aeruginosa, PAM1723, overexpressing the MexAB-OprM efflux pump; assay: Levofloxacin potentiation checkerboard assay (broth microdilution); format: cell-based; conditions: for MPC8: EPI concentration necessary to increase susceptibility to levofloxacin eight-fold
Outline: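 Checkerboard of levofloxacin against efflux pump inhibitors (EPIs) in Mueller-Hinton broth (MHB), with the EPIs titrated down the rows. Plates were incubated 20 h at 35 °C; growth was read at 650 nm and also scored visually.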

Klebsiella pneumonia 79 = assay: Antibiotic MIC with fixed concentration of compound 21, Klebsiella pneumonia 79; format: cell-based
Procedure: To further characterize the clinical potential of tigecycline/EPI combinations, the microbiological activity of tigecycline in combination with compound 21 was investigated using clinical isolates of P. aeruginosa and other gram-negative bacteria. In several experiments, described below, the impact of a fixed concentration of compound 21 (2.5 μg/ml) on susceptibility to tigecycline was determined.
The impact of compound 21 on the activity of tigecycline against representative members of Enterobacteriacaea was also tested.

Enterobacter cloacae 25 = assay: Antibiotic MIC with fixed concentration of compound 21, Enterobacter cloacae 25; format: cell-based
[4] = EPI 0 μg/ml (levofloxacin alone)
[5] = azithromycin MIC with compound 21
[6] = levofloxacin MIC with compound 21 at […]
[7] = tigecycline MIC with compound 21 at […]

SMILES: NCCC[C@@H](N)C(=O)N[C@H](CCc1ccccc1)C(=O)Nc1cnc2ccccc2c1 [Compound 1, 2-(R),5-Diamino-pentanoic acid [3-phenyl-1-(R)-(quinolin-3-ylcarbamoyl)-propyl]-amide]
- stability after 18 hours of incubation with human serum (Stability in human serum): stable
- decrease of ED50 of levofloxacin ([1]; EPI at 50 mg/kg IP, survival at 24 hours): 4 fold
- compound left after 16 hrs of incubation ([2]; all of the tissues tested (rat serum, tissue homogenates), 37° C., 2 μg/ml): 70-80%
- stability in supernatant of rat kidney tissue homogenates ([2]; in words): neither compound 1 nor compound 4 show any instability
- stability in tissue homogenates at pH lowered to about 6 versus no pH change [2]: essentially unchanged
- stability in all of the tissues tested ([2]; rat, in words): highly stable
- Antibiotic (levofloxacin) MIC in the presence of EPI [3, 4]: 2 µg/mL
- Antibiotic (levofloxacin) MIC in the presence of EPI ([3]; EPI 1.25 μg/ml): 2 µg/mL
- Antibiotic (levofloxacin) MIC in the presence of EPI ([3]; EPI 5 μg/ml): 0.5 µg/mL
- Antibiotic (levofloxacin) MIC in the presence of EPI ([3]; EPI 10 μg/ml): 0.06 µg/mL
- Antibiotic (levofloxacin) MIC in the presence of EPI ([3]; EPI 20 μg/ml): 0.03 µg/mL
- Antibiotic (levofloxacin) MIC in the presence of EPI ([3]; EPI 40 μg/ml): 0.015 µg/mL
- Antibiotic (levofloxacin) MIC in the presence of EPI ([3]; EPI 80 μg/ml): 0.008 µg/mL
- Antibiotic (levofloxacin) MIC in the presence of EPI ([3]; EPI […]): 1 µg/mL
- MPC8 [3]: 10 µg/mL

SMILES: NCCC[C@H](N)C(=O)N[C@H](Cc1ccc(C(F)(F)F)cc1)C(=O)Nc1cnc2ccccc2c1 [Compound 21, 2-(S),5-Diamino-pentanoic acid [1-(R)-(quinolin-3-ylcarbamoyl)-2-(4-trifluoromethyl-phenyl)-ethyl]amide]
- Azi + EPI (MIC) (Klebsiella pneumonia 79; [5]): 0.25
- Levo + EPI at […] (MIC) (Klebsiella pneumonia 79; [6]): 4
- Tig + EPI at […] (MIC) (Klebsiella pneumonia 79; [7]): 0.25
- Azi + EPI (MIC) (Enterobacter cloacae 25; [5]): ≦0.125
- Levo + EPI at […] (MIC) (Enterobacter cloacae 25; [6]): 0.5
- Tig + EPI at […] (MIC) (Enterobacter cloacae 25; [7]): 0.5

SMILES: NCCC[C@H](N)C(=O)N[C@H](CCc1ccccc1)C(=O)Nc1cnc2ccccc2c1 [Compound 3, 2-(S),5-Diamino-pentanoic acid [3-phenyl-1-(R)-(quinolin-3-ylcarbamoyl)-propyl]-amide]
- stability after 18 hours of incubation with human serum (Stability in human serum): stable
- decrease in ED50 of levofloxacin ([1]; increasing concentrations of EPI, dose-dependent): up to 4 fold
- stability in supernatant versus pellet of kidney tissue homogenates ([2]; after 5 min. centrifugation): Greater instability
- stability in rat serum ([2]; in words): at least as stable as 1
- stability in supernatant of rat kidney tissue homogenates ([2]; in words): supernatant instability was selective to compound 3
- stability in tissue homogenates at pH lowered to about 6 versus no pH change [2]: degraded faster
- stability in kidney and liver ([2]; rat tissue homogenates, in words): more unstable than 1
- Antibiotic (levofloxacin) MIC in the presence of EPI [3, 4]: 2 µg/mL
- Antibiotic (levofloxacin) MIC in the presence of EPI ([3]; EPI 1.25 μg/ml): 2 µg/mL
- Antibiotic (levofloxacin) MIC in the presence of EPI ([3]; EPI 5 μg/ml): 0.25 µg/mL
- Antibiotic (levofloxacin) MIC in the presence of EPI ([3]; EPI 10 μg/ml): 0.03 µg/mL
- Antibiotic (levofloxacin) MIC in the presence of EPI ([3]; EPI 20 μg/ml): 0.015 µg/mL
- Antibiotic (levofloxacin) MIC in the presence of EPI ([3]; EPI 40 μg/ml): 0.015 µg/mL
- Antibiotic (levofloxacin) MIC in the presence of EPI ([3]; EPI 80 μg/ml): 0.015 µg/mL
- Antibiotic (levofloxacin) MIC in the presence of EPI ([3]; EPI […]): 1 µg/mL
- MPC8 [3]: 10 µg/mL
